# Experimental data reported in patent US11472808B2, “Substituted pyrrolo[1,2-c]pyrimidines as hepatitis B antiviral agents” (Enanta Pharmaceuticals, Inc., priority 2019, dated 2022).
# Test system: HBV
# Test: HepAD38 anti-HBV assay: reduction of viral product accumulation (virion DNA qPCR, HBsAg/HBeAg ELISA)
# Format: cell-based
# Conditions: Hepatitis B virus, 120 h; HepAD38 cells; concentration reducing viral product accumulation by 50% relative to no drug controls; harvest five days after compound addition; read-out: HepAD38 EC50
# Experimental: Methods: HepAD38 cells are maintained as previously reported (Ladner et al, Antimicrob. Agents Chemother. 1997, […], 1715). Briefly, cells are passaged upon attaining confluency in DMEM/F12 media in the presence of 10% FBS, Penn/Strep, 250 μg/mL G418, and 1 μg/ml tetracycline. Novel compounds are screened by first washing cells three times with PBS to remove tetracycline, and plating in 96 well plates at 35,000 cells/well. Compounds dissolved in DMSO are then diluted 1:200 into wells containing cells. Five days after compound addition, material is harvested for analysis. For an extended 8 day analysis, cells are plated and treated as described above, but media and compound are refreshed on d2 and d5 post initial treatment.
# On harvest day, virion DNA is obtained by lysing with Sidestep Lysis and Stabilization Buffer and then quantified via quantitative real time PCR. Commercially available ELISA kits are used to quantitate the viral proteins HBsAg (Alpco) or HbeAg (US Biological) by following the manufacturer's recommended protocol after diluting samples to match the linear range of their respective assays. Irrespective of readout, compound concentrations that reduce viral product accumulation in the cell lysates or supernatants by 50% relative to no drug controls (EC50) are reported; EC50 ranges are as follows: A<0.1 μM; B 0.1-0.4 μM; C>0.4 μM.
row,SMILES,EC50 [µM]
1,O=S(=O)(N[C@H]1CC2=C(c3ccn(C(F)F)n3)[C@H](c3ccc(F)cc3Cl)N=C(c3nccs3)N2C1)c1ccc(F)c(F)c1 [Example 393],0.1 to 0.4
2,O=C(N[C@H]1CC2=C(c3ccn(C(F)F)n3)[C@H](c3ccc(F)cc3Cl)N=C(c3nccs3)N2C1)c1ncc[nH]1 [Example 234],< 0.1
3,COCCN(C)S(=O)(=O)N(C)[C@H]1CC2=C(c3ccn(C(F)F)n3)[C@H](c3ccc(F)cc3Cl)N=C(c3nccs3)N2C1 [Example 268],< 0.1
4,Cn1cc(S(=O)(=O)N[C@H]2CC3=C(c4ccn(C(F)F)n4)[C@H](c4ccc(F)cc4Cl)N=C(c4nccs4)N3C2)cn1 [Example 404],< 0.1
5,O=Cc1cccc(S(=O)(=O)N[C@H]2CC3=C(c4ccn(C(F)F)n4)[C@H](c4ccc(F)cc4Cl)N=C(c4nccs4)N3C2)c1 [Example 333],< 0.1
6,O=S(=O)(CCN1CCCCC1)N[C@H]1CC2=C(c3ccn(C(F)F)n3)[C@H](c3ccc(F)cc3Cl)N=C(c3nccs3)N2C1 [Example 55],0.1 to 0.4
7,CC1(S(=O)(=O)N[C@H]2CC3=C(c4ccn(C(F)F)n4)[C@H](c4ccc(F)cc4Cl)N=C(c4nccs4)N3C2)CC1 [Example 405],< 0.1
8,O=C(N[C@H]1CC2=C(c3ccn(C(F)F)n3)[C@H](c3ccc(F)cc3Cl)N=C(c3nccs3)N2C1)N1CCC(O)(c2ncco2)CC1 [Example 245],0.1 to 0.4
9,COC(=O)c1ccc(CS(=O)(=O)N[C@H]2CC3=C(c4ccn(C(F)F)n4)[C@H](c4ccc(F)cc4Cl)N=C(c4nccs4)N3C2)cc1 [Example 34],< 0.1
10,O=S(=O)(NCCCc1ccccn1)N[C@H]1CC2=C(c3ccn(C(F)F)n3)[C@H](c3ccc(F)cc3Cl)N=C(c3nccs3)N2C1 [Example 350],0.1 to 0.4
11,C=CC(O)C1(F)CC2=C(c3ccn(C(F)F)n3)[C@H](c3ccc(F)cc3Cl)N=C(c3nccs3)N2C1 (some centres unmarked) [Example 181],0.1 to 0.4
12,O=C(N[C@H]1CC2=C(c3ccn(C(F)F)n3)[C@H](c3ccc(F)cc3Cl)N=C(c3nccs3)N2C1)N1C[C@H](O)[C@@H](O)C1 [Example 230],0.1 to 0.4
13,O=C(N[C@H]1CC2=C(c3ccn(C(F)F)n3)[C@H](c3ccc(F)cc3Cl)N=C(c3nccs3)N2C1)C1CCCCC1 [Example 239],0.1 to 0.4
14,C#CCN1CCN([C@H]2CC3=C(c4ccn(C(F)F)n4)[C@H](c4ccc(F)cc4Cl)N=C(c4nccs4)N3C2)C1=O [Example 41],0.1 to 0.4
15,CS(=O)(=O)Nc1ccc(NS(=O)(=O)N[C@H]2CC3=C(c4ccn(C(F)F)n4)[C@H](c4ccc(F)cc4Cl)N=C(c4nccs4)N3C2)cc1 [Example 349],< 0.1
16,CNCCS(=O)(=O)N[C@H]1CC2=C(c3ccn(C(F)F)n3)[C@H](c3ccc(F)cc3Cl)N=C(c3nccs3)N2C1 [Example 52],< 0.1
17,O=C(NC[C@@]1(F)CC2=C(c3ccn(C(F)F)n3)[C@H](c3ccc(F)cc3Cl)N=C(c3nccs3)N2C1)OCc1ccccc1 [Example 187],> 0.4
18,O[C@@]1(Cn2cccn2)CC2=C(c3ccn(C(F)F)n3)[C@H](c3ccc(F)cc3Cl)N=C(c3nccs3)N2C1 [Example 121],> 0.4
19,OCC(O)[C@]1(F)CC2=C(c3ccn(C(F)F)n3)[C@H](c3ccc(F)cc3Cl)N=C(c3nccs3)N2C1 (some centres unmarked) [Example 169],0.1 to 0.4
20,CCOC(=O)C1CCN(CCS(=O)(=O)N[C@H]2CC3=C(c4ccn(C(F)F)n4)[C@H](c4ccc(F)cc4Cl)N=C(c4nccs4)N3C2)CC1 [Example 58],0.1 to 0.4
21,CC1(NS(=O)(=O)N[C@H]2CC3=C(c4ccn(C(F)F)n4)[C@H](c4ccc(F)cc4Cl)N=C(c4nccs4)N3C2)CCC1 [Example 416],< 0.1
22,O=S(=O)(N[C@H]1CC2=C(c3ccn(C(F)F)n3)[C@H](c3ccc(F)cc3Cl)N=C(c3nccs3)N2C1)N1CCC(O)(c2cnc(C3CC3)s2)CC1 [Example 262],< 0.1
23,CC(C)C[C@@H](NS(=O)(=O)N[C@H]1CC2=C(c3ccn(C(F)F)n3)[C@H](c3ccc(F)cc3Cl)N=C(c3nccs3)N2C1)c1ccccn1 [Example 360],0.1 to 0.4
24,O=S(=O)(NCc1ncc[nH]1)N[C@H]1CC2=C(c3ccn(C(F)F)n3)[C@H](c3ccc(F)cc3Cl)N=C(c3nccs3)N2C1 [Example 314],0.1 to 0.4
25,COC(=O)c1ccccc1S(=O)(=O)N[C@H]1CC2=C(c3ccn(C(F)F)n3)[C@H](c3ccc(F)cc3Cl)N=C(c3nccs3)N2C1 [Example 4],0.1 to 0.4
26,CC(C)[C@@H](NS(=O)(=O)N[C@H]1CC2=C(c3ccn(C(F)F)n3)[C@H](c3ccc(F)cc3Cl)N=C(c3nccs3)N2C1)c1ccccn1 [Example 341],0.1 to 0.4
27,O=S(=O)(CCN1CCC(O)CC1)N[C@H]1CC2=C(c3ccn(C(F)F)n3)[C@H](c3ccc(F)cc3Cl)N=C(c3nccs3)N2C1 [Example 57],< 0.1

row,SMILES,EC50 [µM]
1,COC(=O)c1cccc(S(=O)(=O)N[C@H]2CC3=C(c4ccn(C(F)F)n4)[C@H](c4ccc(F)cc4Cl)N=C(c4nccs4)N3C2)c1 [Example 2],< 0.1
2,O=C(Cc1ccccn1)N[C@H]1CC2=C(c3ccn(C(F)F)n3)[C@H](c3ccc(F)cc3Cl)N=C(c3nccs3)N2C1 [Example 326],0.1 to 0.4
3,O=C(N[C@H]1CC2=C(c3ccn(C(F)F)n3)[C@H](c3ccc(F)cc3Cl)N=C(c3nccs3)N2C1)N1CCC1 [Example 210],< 0.1
4,CS(=O)(=O)C[C@@]1(O)CC2=C(c3ccn(C(F)F)n3)[C@H](c3ccc(F)cc3Cl)N=C(c3nccs3)N2C1 [Example 144],0.1 to 0.4
5,CC(=O)OCCCS(=O)(=O)N([C@H]1CC2=C(c3ccn(C(F)F)n3)[C@H](c3ccc(F)cc3Cl)N=C(c3nccs3)N2C1)S(=O)(=O)CCCOC(C)=O [Example 311],< 0.1
6,CCOC(=O)/C=C/[C@@]1(F)CC2=C(c3ccn(C(F)F)n3)[C@H](c3ccc(F)cc3Cl)N=C(c3nccs3)N2C1 [Example 173],< 0.1
7,O=S(=O)(N[C@H]1CC2=C(c3ccn(C(F)F)n3)[C@H](c3ccc(F)cc3Cl)N=C(c3nccs3)N2C1)c1cccc(-n2cccn2)n1 [Example 423],0.1 to 0.4
8,O=S(=O)(N[C@H]1CC2=C(c3ccn(C(F)F)n3)[C@H](c3ccc(F)cc3Cl)N=C(c3nccs3)N2C1)c1ccc2ncccc2c1 [Example 397],< 0.1
9,O=C(O)c1ccc(CS(=O)(=O)N[C@H]2CC3=C(c4ccn(C(F)F)n4)[C@H](c4ccc(F)cc4Cl)N=C(c4nccs4)N3C2)cc1 [Example 36],< 0.1
10,C[C@@H]1CN(S(=O)(=O)N[C@H]2CC3=C(c4ccn(C(F)F)n4)[C@H](c4ccc(F)cc4Cl)N=C(c4nccs4)N3C2)C[C@@H]1C [Example 299],< 0.1
11,CS(=O)(=O)CCS(=O)(=O)N[C@H]1CC2=C(c3ccn(C(F)F)n3)[C@H](c3ccc(F)cc3Cl)N=C(c3nccs3)N2C1 [Example 328],< 0.1
12,O=S(=O)(N[C@H]1CC2=C(c3ccn(C(F)F)n3)[C@H](c3ccc(F)cc3Cl)N=C(c3nccs3)N2C1)c1cc(Cl)cc(Cl)c1 [Example 395],0.1 to 0.4
13,O=S(=O)(N[C@H]1CC2=C(c3ccn(C(F)F)n3)[C@H](c3ccc(F)cc3Cl)N=C(c3nccs3)N2C1)c1ccc(-c2ccccn2)s1 [Example 400],< 0.1
14,O=S(=O)(N[C@H]1CC2=C(c3ccn(C(F)F)n3)[C@H](c3ccc(F)cc3Cl)N=C(c3nccs3)N2C1)C1CCCCC1 [Example 240],< 0.1
15,O=C(N[C@H]1CC2=C(c3ccn(C(F)F)n3)[C@H](c3ccc(F)cc3Cl)N=C(c3nccs3)N2C1)N1CCC(O)(CO)CC1 [Example 241],0.1 to 0.4
16,OC[C@@]1(F)CC2=C(c3ccn(C(F)F)n3)[C@H](c3ccc(F)cc3Cl)N=C(c3nccs3)N2C1 [Example 166],0.1 to 0.4
17,O=S(=O)(NCc1ccccc1)N[C@H]1CC2=C(c3ccn(C(F)F)n3)[C@H](c3ccc(F)cc3Cl)N=C(c3nccs3)N2C1 [Example 305],0.1 to 0.4
18,CCOC(=O)N[C@H]1CC2=C(c3ccn(C(F)F)n3)[C@H](c3ccc(F)cc3Cl)N=C(c3nccs3)N2C1 [Example 201],< 0.1
19,O=C(N[C@H]1CC2=C(c3ccn(C(F)F)n3)[C@H](c3ccc(F)cc3Cl)N=C(c3nccs3)N2C1)N1CCN(S(=O)(=O)c2ccccc2)CC1 [Example 228],> 0.4
20,O=C(O)c1ccccc1CS(=O)(=O)N[C@H]1CC2=C(c3ccn(C(F)F)n3)[C@H](c3ccc(F)cc3Cl)N=C(c3nccs3)N2C1 [Example 23],0.1 to 0.4
21,O=C(N[C@H]1CC2=C(c3ccn(C(F)F)n3)[C@H](c3ccc(F)cc3Cl)N=C(c3nccs3)N2C1)O[C@H]1CC[C@H](O)CC1 [Example 254],< 0.1
22,CC(C)(NS(=O)(=O)N[C@H]1CC2=C(c3ccn(C(F)F)n3)[C@H](c3ccc(F)cc3Cl)N=C(c3nccs3)N2C1)c1ccccn1 [Example 318],< 0.1
23,O=C(NCC(O)c1ccccn1)N[C@H]1CC2=C(c3ccn(C(F)F)n3)[C@H](c3ccc(F)cc3Cl)N=C(c3nccs3)N2C1 (some centres unmarked) [Example 218],> 0.4
24,CC1CCC(C)N1S(=O)(=O)N[C@H]1CC2=C(c3ccn(C(F)F)n3)[C@H](c3ccc(F)cc3Cl)N=C(c3nccs3)N2C1 (some centres unmarked) [Example 291],< 0.1
25,CC(C)OC(=O)N[C@H]1CC2=C(c3ccn(C(F)F)n3)[C@H](c3ccc(F)cc3Cl)N=C(c3nccs3)N2C1 [Example 202],< 0.1
26,COC(=O)c1cccc(S(=O)(=O)NCC2(F)CC3=C(c4ccn(C(F)F)n4)[C@H](c4ccc(F)cc4Cl)N=C(c4nccs4)N3C2)c1 (some centres unmarked) [Example 190],> 0.4
